Measured values: US7871981B2, “Inhibition of cell motility, angiogenesis, and metastasis” (The United States of America as represented by the …, priority 1999, dated 2011)

Experiments:
[1] = system: B16-luc cells; assay: Tail vein model (induced metastasis), B16-luc, bioluminescence imaging; format: in vivo, SCID/beige mice; conditions: single 24 h pre-treatment, three week period
Description: B16-luc cells were pre-treated for 24 hrs with 1 micromolar C90, then trypsinized, washed in PBS and spun down at 650 rpm to be resuspended in HBSS at the appropriate cell density for injection (1×10^6 cells). Injection was boosted with 10 micromolar C90. Cell where then injected in the dorsal tail vein of severe combined immunodeficient (SCID)/beige mice (Taconic Inc., Germantown, N.Y.).
(§1) Cells prepared for xenograft injections were pretreated with C-90 for 24 h. Cells were injected in to mice (5 per group) by either tail vein (B16-luc, induced metastasis model) or subcutaneously (PC3M-luc, spontaneous metastasis model). Imaging of the PC3M cell metastases in lungs ex vivo (FIG. 14A)) correlated with earlier scans of intact animals (data not shown). Units are proportional to photons emitted within a defined time interval (total flux).

[2] = system: HUVE cells; assay: HUVE cell proliferation; format: cell-based, human
Description: HUVE or HMVE cells were seeded per triplicate in type I collagen-coated 48-well plates (Biocoat) (3000 cells/well) in […] of complete EGM-Bullet Kit medium (BioWhittaker, Walkersville, Md.), allowed to attach for 4 hr and incubated overnight with or without the indicated concentrations of peptide 2. The cultures were rinsed twice in serum-free medium and incubated with EBM medium (BioWhittaker) supplemented with 50 μg/ml heparin, 50 μg/ml ascorbic acid and 10% FCS. After either 4 days (HUVE) or 5 days (HMVE), cells were harvested with trypsin/EDTA and counted with an hemocytometer. The mean number of cells per ml was calculated from 3 independent measures for each of triplicate wells per experimental condition and compared to controls using the Student's unpaired t-test. Results set forth in FIG. 12 are described as the ratio of growth factor-treated to control proliferating cells designated on the y-axis as “Proliferation (Fold Increase)”.

[3] = system: PC3M cells; assay: Growth rate and viability in culture of C-90 treated PC3M cells; format: cell-based, human; conditions: treated 24 h, three week study period
[4] = system: HUVE cells; assay: HUVE cell migration, modified Boyden chamber; format: cell-based, human
Description: (§2) The migration assay of HUVE and HMEC-1 cells in modified Boyden chambers was adapted from previously described procedures (Murohara et al., Thromb. Vasc. Biol., 19: 1156-61 (1999), Malinda et al., FASEB J., 13: 53-62 (1999)). In brief, Biocoat Cell Environment control inserts (8 micron pore size; Becton Dickinson) were coated with 0.1% gelatin (Sigma) for at least 1 hour at 37° C. and air dried. Lower chambers contained 0.7 ml RPMI+0.1% BSA, to which 20 ng/ml HGF and/or 300 nM Grb2 inhibitors were added. Cells were pre-treated with the indicated concentrations of Grb2 inhibitors for 18-24 hours, trypsinized, washed twice in RPMI+0.1% BSA, added to upper chambers (5×10^4 cells/well) with or without inhibitors in a final volume of 0.5 ml, and incubated for 4 h at 37° C. Cells on the upper surface of each filter were removed with a cotton swab, while cells that had traversed to the bottom surface of the filter were fixed and stained using Diff-Quik (Dade Diagnostics) and counted using a 10× objective. Mean values from 4 randomly selected fields (1×1.4 mm) were calculated for each of triplicate wells per experimental condition. Shown in FIG. 6 is the ratio of growth factor-treated to control migrating cells designated on the y-axis as “Migration (Fold Increase)” or as the mean number of cells per optical field in FIGS. 8-11.

[5] = system: PC3M-luc cells; assay: Subcutaneous tumor model (spontaneous metastasis), PC3M-luc xenograft, bioluminescence imaging; format: in vivo, SCID/beige mice; conditions: cells pre-treated 24 h with 1 micromolar
Description: PC3M-luc cells were pre-treated for 24 hrs with 1 micromolar C90, then trypsinized, washed in PBS and spun down at 650 rpm to be resuspended in HBSS at the appropriate cell density for injection (1×10^6 cells). Injection was boosted with 10 micromolar C-90. Cell where then injected in the right flank SCID/beige mice (Taconic Inc., Germantown, N.Y.). On indicated days, mice were injected with 150 mg/kg of D-luciferin (potassium salt, Xenogen Corp., Alameda, Calif.) and placed for imaging in the In vivo Imaging System (Xenogen) with total imaging time of 1 or 5 minutes. Total body bioluminescence was quantified by integrating the photonic flux (photons per second) through a region of interest drawn around each mouse.
as §1

[6] = system: HMEC-1 cells; assay: HMEC-1 cell migration, modified Boyden chamber; format: cell-based, human; conditions: VEGF
Description: as §2

SMILES: NC(=O)C[C@H](NC(=O)C1(NC(=O)[C@H](Cc2ccc(C(C(=O)O)C(=O)O)cc2)NC(=O)C(=O)O)CCCCC1)C(=O)NCCCc1cccc2ccccc12 [peptide 2, (N-oxalyl-4-malonyl)-Phe-Ac6c-Asn-NH-(3-naphthalen-1-yl-propyl)]
- ability to form lung metastases relative to untreated control cells [1]: significantly reduced ability to form lung metastases
- HGF- VEGF-induced HUVE cell proliferation ([2]; peptide 30 nM): failed to significantly (p=0.05) inhibit
- bFGF-dependent HUVE cell proliferation ([2]; peptide 30 nM, p<0.0001): inhibited
- serum-dependent HUVE cell proliferation ([2]; peptide 30 nM, p<0.001): inhibited
- HGF- VEGF-induced HUVE cell proliferation (cell counts) ([2]; peptide 300 nM): significant (p<0.0001) reduction in cell counts
- growth rate and viability in culture [3]: identical growth rate and viability as untreated cells
- VEGF-induced cell migration ([4]; VEGF): significantly (p<0.001) reverted
- PMA-induced cell migration ([4]; peptide 300 nM, PMA 40 ng/ml): dramatically reverted to basal levels
- primary tumor growth (mass, volume ex vivo) [5]: did not affect primary tumor growth
- metastatic rate (lung metastases ex vivo, total flux) relative to untreated control cells ([5]; injection boosted with 10 micromolar): significantly reduced the metastatic rate
- VEGF-induced cell migration [6]: significantly (p<0.001) reverted
